For data set [1] the following is noted: wide range of doses; up to six months of continuous treatment; cited from earlier work.
The next data set relates to sST-2. Put plainly: Serum sST-2 measured by EIA kit (PRESAGE sST-2 assay) in heart failure subjects treated 48 hours with serelaxin or placebo. Format: in vivo, human. As to the method:
Samples were collected from subjects enrolled in a multi-center, randomized, double-blind, placebo-controlled clinical trial, which was conducted to determine the safety and efficacy of serelaxin (recombinant human serelaxin) in subjects with heart failure, as described in Teerlink et al. (supra).
Serum was collected from 218 subjects (supra) for whom a baseline level of sST-2 as well as a post-serelaxin treatment level of sST-2 was determined. sST-2 was found at a lower limit of quantitation of 3.1 ng/ml and an upper limit of quantitation of 200 ng/ml. sST-2 was measured via the EIA kit (see Example 7 for more detail) and exact clinical measurements are summarized in Table 1 (see attached Table 1).
The difference between the placebo group and each of the serelaxin dose groups was statistically significant at 48 hours.
At baseline, geometric means across treatment groups ranged from 47 ng/ml to 60 ng/ml, i.e., 55 percent of the treated subjects had sST-2 concentrations that exceeded the normal range of 33.5 ng/ml in females and 49.3 ng/ml in males. […] This established that serelaxin transiently upregulates sST-2.
FIG. 3 depicts a between-treatment analysis of sST-2 by visit, comparing a change from baseline in sST-2 geometric means between the serelaxin groups compared to the placebo group at 3 time points. […] The differences subsided so that by Day 5, changes from baseline in 3 of the 4 serelaxin groups, as well as the pooled serelaxin group, were no different than change from baseline in the placebo group. By Day 14, the changes from baseline in all of the serelaxin groups were not different from change in the placebo group. As above, this establishes that serelaxin transiently up-regulates sST-2.
sST-2 levels were measured with the EIA Test Kit & PRESAGE sST-2 Assay (from Critical Diagnostics, NY) according to the manufacturer's instructions. Alternatively, other assays could be used such as the QUANTIKINE ST2/IL-1 R4 Immunoassay (from R&D Systems, Inc., MN).
The EIA test kit is a quantitative sandwich monoclonal ELISA in a 96 well plate format for measurement of sST-2 in serum or plasma. Diluted serum from 218 subjects was loaded into the appropriate wells in the anti-ST-2 antibody coated plate and incubated for the prescribed time. Following a series of steps, where reagents were washed from the plate, and additional reagents were added and subsequently washed out, the analyte sST-2 was detected by addition of a colorimetric reagent. The resulting signal was measured spectroscopically at 450 nm. The assay was conducted according to the parameters described in the assay description of the EIA test kit with all prescribed reagents and materials.

In the case of serelaxin, the “safety in nonclinical toxicology studies” value in data set [1] was “safe”. Besides, the “change from baseline in sST-2 concentrations at 48 hours” value with sST-2 (48 hours of treatment, all serelaxin dose groups, placebo decreased 30%, p<0.05 for all serelaxin groups vs. placebo) is recorded as “increase from baseline”. For the same substance, in the data set with sST-2 (48 hours, all serelaxin groups and pooled serelaxin group, between-treatment analysis (FIG. 3)), the “change from baseline in sST-2 geometric means vs. placebo group at 48 hours” value is listed as “significantly different”. The “change from baseline in sST-2 geometric means vs. placebo group at Day 5” value in the data set with sST-2 (Day 5, 3 of the 4 serelaxin groups and pooled serelaxin group) is given as “no different”. Besides, the “change from baseline in sST-2 geometric means vs. placebo group at Day 14” value in the data set on sST-2 (Day 14, all serelaxin groups) is recorded as “not different”.

(Values after patent US20170014409A1, “TREATING INFLAMMATION USING SERELAXIN” (priority 2012, published 2017).)
